Results published in patent US20170073337A1, “DIHYDROTHIAZINE AND DIHYDROOXAZINE DERIVATIVES HAVING BACE1 INHIBITORY ACTIVITY” (Shionogi & Co., Ltd., priority 2014, published 2017).
≈ marks a conversion by molar mass, not a printed value. Where two headings read alike, the source gives them in different places.

Tests used:
[1] = biological target: T1, CYP1A2 (Homo sapiens, UniProt P05177); test: CYP inhibition test (CYP1A2); format: in vitro ADME; settings: pooled human liver microsomes; 7-ethoxyresorufin O-deethylation
T1 construct: The commercially available pooled human liver microsomes are used as an enzyme resource; from tissue; host or cells: pooled human liver microsomes
T1 sequence (P05177 1-516): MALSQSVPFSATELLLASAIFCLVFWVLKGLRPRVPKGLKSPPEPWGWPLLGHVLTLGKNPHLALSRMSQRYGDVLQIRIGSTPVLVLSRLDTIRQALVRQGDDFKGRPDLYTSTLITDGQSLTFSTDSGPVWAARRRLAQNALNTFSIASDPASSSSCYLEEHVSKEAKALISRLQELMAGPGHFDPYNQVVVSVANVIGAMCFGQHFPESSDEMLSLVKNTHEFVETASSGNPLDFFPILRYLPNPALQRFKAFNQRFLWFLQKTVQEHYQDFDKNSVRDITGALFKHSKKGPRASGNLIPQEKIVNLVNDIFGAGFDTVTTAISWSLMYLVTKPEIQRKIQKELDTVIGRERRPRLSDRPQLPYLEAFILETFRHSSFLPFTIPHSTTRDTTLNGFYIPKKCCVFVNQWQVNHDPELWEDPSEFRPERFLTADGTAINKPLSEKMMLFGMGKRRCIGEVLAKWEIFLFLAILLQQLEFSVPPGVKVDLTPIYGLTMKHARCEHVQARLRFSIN
Method in brief: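 Inhibition of CYP1A2 was measured in commercially available pooled human liver microsomes (0.2 mg protein/mL) using 7-ethoxyresorufin O-deethylation with 0.5 μmol/L ethoxyresorufin. Test compound at 1, 5, 10, 20 μmol/L in […] Hepes buffer was incubated at 37° C. after NADPH addition; methanol/acetonitrile=1/1 (v/v) stopped the reaction, and resorufin was read fluorescently.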

[2] = biological target: T2, CYP2C19 (Homo sapiens, UniProt P33261); test: CYP inhibition test (CYP2C19); format: in vitro ADME; settings: pooled human liver microsomes; mephenytoin 4′-hydroxylation
T2 construct: The commercially available pooled human liver microsomes are used as an enzyme resource; from tissue; host or cells: pooled human liver microsomes
T2 sequence (P33261 whole entry): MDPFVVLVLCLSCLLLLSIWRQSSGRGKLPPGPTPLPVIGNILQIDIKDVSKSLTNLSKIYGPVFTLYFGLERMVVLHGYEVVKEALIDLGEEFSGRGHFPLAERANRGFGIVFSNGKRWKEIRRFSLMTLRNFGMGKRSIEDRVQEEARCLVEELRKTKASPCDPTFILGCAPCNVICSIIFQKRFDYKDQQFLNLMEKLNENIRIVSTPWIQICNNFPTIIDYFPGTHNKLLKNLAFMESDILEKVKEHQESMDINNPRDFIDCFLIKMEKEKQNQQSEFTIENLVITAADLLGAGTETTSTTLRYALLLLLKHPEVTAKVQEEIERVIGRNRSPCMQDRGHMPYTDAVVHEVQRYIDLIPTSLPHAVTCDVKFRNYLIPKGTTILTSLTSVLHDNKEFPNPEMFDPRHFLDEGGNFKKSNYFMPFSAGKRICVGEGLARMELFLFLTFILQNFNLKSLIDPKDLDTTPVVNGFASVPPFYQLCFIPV
Method in brief: (§1)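 Pooled human liver microsomes (0.2 mg protein/mL) with compound at 1, 5, 10 and 20 μmol/L and NADPH, at 37 °C. Marker substrates: dextromethorphan 5 μmol/L (2D6), terfenadine 1 μmol/L (3A4), S-mephenytoin 50 μmol/L (2C19), tolbutamide 100 μmol/L (2C9). Metabolites were measured by LC/MS/MS, and IC50 was derived by logistic fit of remaining activity against the DMSO control.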

[3] = biological target: T3, CYP3A4 (Homo sapiens, UniProt P08684); test: CYP inhibition test (CYP3A4); format: in vitro ADME; settings: pooled human liver microsomes; terfenadine hydroxylation
T3 construct: The commercially available pooled human liver microsomes are used as an enzyme resource; from tissue; host or cells: pooled human liver microsomes
T3 sequence (P08684 whole entry): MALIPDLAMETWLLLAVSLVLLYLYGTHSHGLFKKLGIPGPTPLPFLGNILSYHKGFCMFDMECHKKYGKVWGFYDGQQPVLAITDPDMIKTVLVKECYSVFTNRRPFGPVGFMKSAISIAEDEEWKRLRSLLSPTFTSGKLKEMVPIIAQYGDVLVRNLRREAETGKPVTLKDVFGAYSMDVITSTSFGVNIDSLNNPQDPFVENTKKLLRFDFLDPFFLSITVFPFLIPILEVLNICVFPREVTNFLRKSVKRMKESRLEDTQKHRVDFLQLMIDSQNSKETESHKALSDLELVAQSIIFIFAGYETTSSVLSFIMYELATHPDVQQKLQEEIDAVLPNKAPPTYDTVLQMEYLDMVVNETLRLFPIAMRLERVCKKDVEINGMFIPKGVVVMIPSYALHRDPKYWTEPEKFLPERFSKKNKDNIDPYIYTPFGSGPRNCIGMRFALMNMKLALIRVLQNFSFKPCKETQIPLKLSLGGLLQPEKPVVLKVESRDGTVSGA
Method in brief: as §1

[4] = Solubility test; format: physicochemical; settings: kinetic from dmso stock; for solubility kinetic at 16 h: 25 °C
Method in brief: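 Dissolved concentration determined by LC/MS or SPE/MS (absolute calibration) in diluted filtrates, after 2 μL of 10 mmol/L DMSO stock was added to 198 μL JP 1st or JP 2nd fluid and equilibrated either 1 h with shaking at room temperature or 16 h standing at 25 °C.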

[5] = Metabolic stability test; format: in vitro ADME; settings: human liver microsomes, 37° C., 30 minutes, NADPH
Method in brief: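 Parent compound was measured by LC/MS/MS or SPE/MS after a methanol/acetonitrile quench and reported as % remaining, with the 0 min sample set to 100%. Incubations ran 30 min at 37 °C in pH 7.4 Tris buffer containing pooled human liver microsomes at 0.5 mg protein/mL and 1 mmol/L NADPH.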

[6] = biological target: T4, human ether-a-go-go related gene (hERG) channel (Homo sapiens, UniProt Q12809); test: hERG test; format: cell-based; settings: % inhibition of IKr tail peak current at 3 uM; CHO cells expressing hERG
T4 construct: expressed in transfected cells; host or cells: CHO cells
T4 sequence (Q12809 whole entry): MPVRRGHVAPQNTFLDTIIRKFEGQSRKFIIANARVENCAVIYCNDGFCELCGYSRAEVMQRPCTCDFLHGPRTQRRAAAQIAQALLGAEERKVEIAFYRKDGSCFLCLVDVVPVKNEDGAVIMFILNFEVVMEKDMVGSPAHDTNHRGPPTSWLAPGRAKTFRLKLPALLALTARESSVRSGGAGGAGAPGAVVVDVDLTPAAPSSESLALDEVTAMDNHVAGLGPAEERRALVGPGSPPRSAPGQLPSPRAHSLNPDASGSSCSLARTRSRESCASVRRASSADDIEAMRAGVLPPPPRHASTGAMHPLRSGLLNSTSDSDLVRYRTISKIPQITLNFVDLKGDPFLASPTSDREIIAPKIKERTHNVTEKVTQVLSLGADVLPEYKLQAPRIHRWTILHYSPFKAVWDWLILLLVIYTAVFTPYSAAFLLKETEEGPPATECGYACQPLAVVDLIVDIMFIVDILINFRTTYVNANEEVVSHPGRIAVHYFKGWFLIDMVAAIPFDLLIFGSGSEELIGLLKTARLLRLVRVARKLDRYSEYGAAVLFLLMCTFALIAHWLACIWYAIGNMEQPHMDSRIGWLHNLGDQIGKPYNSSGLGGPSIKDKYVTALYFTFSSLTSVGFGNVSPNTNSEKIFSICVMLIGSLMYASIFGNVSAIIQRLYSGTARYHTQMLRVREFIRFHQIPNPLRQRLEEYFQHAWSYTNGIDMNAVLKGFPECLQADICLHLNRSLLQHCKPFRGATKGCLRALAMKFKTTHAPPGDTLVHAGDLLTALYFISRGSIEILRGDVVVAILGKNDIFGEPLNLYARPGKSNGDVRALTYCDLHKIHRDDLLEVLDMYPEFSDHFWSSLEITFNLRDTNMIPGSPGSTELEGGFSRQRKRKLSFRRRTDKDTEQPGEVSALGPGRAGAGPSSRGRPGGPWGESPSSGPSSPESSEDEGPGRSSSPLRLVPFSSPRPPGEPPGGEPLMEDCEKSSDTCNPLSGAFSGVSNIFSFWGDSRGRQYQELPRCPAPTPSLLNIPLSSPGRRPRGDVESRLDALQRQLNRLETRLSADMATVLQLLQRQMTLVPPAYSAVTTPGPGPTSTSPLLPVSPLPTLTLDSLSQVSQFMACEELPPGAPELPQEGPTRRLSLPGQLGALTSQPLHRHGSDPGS
Method in brief: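 Automated whole-cell patch clamp was run on CHO cells carrying human hERG, held at −80 mV. Current was recorded during the −50 mV repolarization (2 s) that followed a 2 s +20 mV step, after a −50 mV leak pulse.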

[7] = JP 1st fluid, pH 1.2, simulated gastric fluid, read-out: JP1
[8] = JP 2nd fluid A, pH 6.8, aqueous buffer, read-out: JP2_μM

For `C[C@H]1SC(N)=N[C@](C)(c2nc(NC(=O)c3ccc(C#N)cn3)ccc2F)[C@H]1F` [Compound I-1], the IC50 [1] was ≥ 20 µM, the IC50 [2] was ≥ 20 µM and the IC50 [3] was ≥ 20 µM. The solubility kinetic at 16 h [4, 7] was > 50 µM, the solubility kinetic at 16 h [4, 8] was > 50 µM and the remaining % [5] was 82.4%.

With `C[C@]1(c2nc(NC(=O)c3ccc(C#N)cn3)ccc2F)N=C(N)S[C@H](CF)[C@@H]1F` [Compound I-4] the IC50 [1] was ≥ 20 µM, the IC50 [2] was ≥ 20 µM and the IC50 [3] was ≥ 20 µM. The solubility kinetic at 16 h [4, 7] was 35.8 µM (≈ 15.1 µg/mL), the solubility kinetic at 16 h [4, 8] was > 50 µM and the “hERG_3 uM_%” value [6] was 47.9%.

With `C[C@@]1(c2cc(NC(=O)c3ccc(C#N)cn3)ccc2F)C[C@@](C)(C(F)(F)F)OC(N)=N1` [Compound I-7] the solubility kinetic at 16 h [4, 7] was > 50 µM, the solubility kinetic at 16 h [4, 8] was > 50 µM and the remaining % [5] was 82%. For the same molecule, the “hERG_3 uM_%” value [6] was 47.4%.

With `COc1cnc(C(=O)Nc2ccc(F)c([C@@]3(C)N=C(N)S[C@H](C)[C@@H]3F)c2)cn1` [Compound I-8] the IC50 [1] was ≥ 20 µM, the IC50 [2] was ≥ 20 µM and the IC50 [3] was ≥ 20 µM. For the same molecule, the solubility kinetic at 16 h [4, 7] was 46.4 µM (≈ 18.9 µg/mL), the solubility kinetic at 16 h [4, 8] was > 50 µM and the “hERG_3 uM_%” value [6] was 16.7%.

With `C[C@]1(c2cc(NC(=O)c3ccc(C#N)cn3)ccc2F)N=C(N)O[C@H](CF)[C@@H]1OCC(F)(F)F` [Compound I-10] the IC50 [1] was ≥ 20 µM, the IC50 [2] was ≥ 20 µM and the IC50 [3] was ≥ 20 µM. The solubility kinetic at 16 h [4, 7] was 40 µM (≈ 19.3 µg/mL), the solubility kinetic at 16 h [4, 8] was > 50 µM and the remaining % [5] was 95.6%.

In the case of `COc1cnc(C(=O)Nc2ccc(F)c([C@@]3(C)N=C(N)O[C@H]([C@H](C)F)[C@@H]3F)c2)cn1` [Compound I-17], the IC50 [1] is reported as ≥ 20 µM, the IC50 [2] is reported as ≥ 20 µM and the IC50 [3] is reported as ≥ 20 µM. The solubility kinetic at 1 h [4, 7] was 33.9 µM (≈ 14.4 µg/mL), the solubility kinetic at 1 h [4, 8] was > 50 µM and the “hERG_3 uM_%” value [6] was 19.5%.

In the case of `C[C@H]1[C@@H](C(F)(F)F)OC(N)=N[C@]1(C)c1cc(NC(=O)c2ccc(C#N)cn2)ccc1F` [Compound I-28], the IC50 [1] is reported as ≥ 20 µM, the IC50 [2] is reported as ≥ 20 µM and the IC50 [3] is reported as ≥ 20 µM. The solubility kinetic at 16 h [4, 7] was 40.4 µM (≈ 17.6 µg/mL), the solubility kinetic at 16 h [4, 8] was > 50 µM and the “hERG_3 uM_%” value [6] was 36.2%.

With `C[C@H]1[C@@H](C(F)(F)F)OC(N)=N[C@]1(C)c1cc(NC(=O)c2cnc(OCF)cn2)ccc1F` [Compound I-30] the IC50 [1] was ≥ 20 µM, the IC50 [2] was ≥ 20 µM and the IC50 [3] was ≥ 20 µM. The solubility kinetic at 16 h [4, 7] was 39.2 µM (≈ 18 µg/mL), the solubility kinetic at 16 h [4, 8] was > 50 µM and the “hERG_3 uM_%” value [6] was 15.1%.

With `C[C@]1(c2cc(NC(=O)c3ccc(C#N)cn3)ccc2F)N=C(N)O[C@H]2[C@@H]1OCC2(F)F` [Compound I-35] the IC50 [1] was ≥ 20 µM, the IC50 [2] was ≥ 20 µM and the IC50 [3] was ≥ 20 µM. For the same molecule, the solubility kinetic at 16 h [4, 7] was > 50 µM, the solubility kinetic at 16 h [4, 8] was > 50 µM and the “hERG_3 uM_%” value [6] was 41.1%.

For `C[C@H]1[C@@H](C(F)(F)F)OC(N)=N[C@]1(C)c1cc(NC(=O)c2cnc(OCF)cn2)ccc1F` [Compound I-41], the solubility kinetic at 1 h [4, 7] was > 50 µM, the solubility kinetic at 1 h [4, 8] was > 50 µM and the remaining % [5] was 105%. The “hERG_3 uM_%” value [6] was 24.8%.

For `C[C@H]1SC(N)=N[C@](C)(c2cc(NC(=O)c3cnc(OCC(F)(F)F)cn3)ccc2F)[C@H]1F` [Compound I-46], the IC50 [1] was ≥ 20 µM, the IC50 [2] was ≥ 20 µM and the solubility kinetic at 1 h [4, 7] was > 50 µM. The solubility kinetic at 1 h [4, 8] was 8.3 µM (≈ 3.95 µg/mL), the remaining % [5] was 97.8% and the “hERG_3 uM_%” value [6] was 33.4%.

In the case of `C[C@H]1SC(N)=N[C@](C)(c2cc(NC(=O)c3cnc(OCC(F)F)cn3)ccc2F)[C@H]1F` [Compound I-48], the IC50 [1] is reported as ≥ 20 µM, the IC50 [2] is reported as ≥ 20 µM and the IC50 [3] is reported as ≥ 20 µM. The solubility kinetic at 1 h [4, 7] was > 50 µM, the solubility kinetic at 1 h [4, 8] was 39.5 µM (≈ 18.1 µg/mL) and the remaining % [5] was 92.9%.
